Tested on: HepG2 cells
Experiment: Colony formation assay with ectopic PGF expression
Type: cell-based, human
Description: The placental growth factor (PGF) coding sequence was amplified using gene specific primers and then subcloned into a lentiviral vector pSL4-Flag expressing the puromycin resistance gene to generate pSL4-Flag-PGF vector with a CMV promoter driving PGF expression. The primers used to amplify the PGF coding sequence, check the amplified DNA fragment and verify its ectopic expression are listed in Supplementary Table S1. Lentiviruses carrying pSL4-Flag-PGF and an empty pSL4-Flag vector were produced and used to infect HCC cells based on our previously reported procedure ([Wan et al., 2012]). Ectopic PGF expression was achieved by infecting HCC cells with pSL4-Flag-PGF lentivirus, and the control cells were produced by infecting HCC cells using lentivirus carrying the empty pSL4-Flag-vector.
HepG2 cells were cultured overnight into 12-well plates with a density of 1×10^3 cells/well. The cells were then individually infected by pSL4-Flag-vector and pSL4-Flag-PGF lentiviruses. After 24 h, the cells were cultured in a complete medium containing 150 µM of BCP or an equal volume of ethanol for 10 days. The plates were washed using ice-cold PBS three times and cells were fixed using 70% ice-cold methanol for 20 min. […] The stained wells were photographed and clonogenicity was analyzed using ImageJ software.

SMILES: C=C1CC/C=C(\C)CC[C@@H]2[C@@H]1CC2(C)C [BCP, β-caryophyllene]
- colony formation (HepG2 carrying pSL4-vector, 150 µM BCP 10 days, compared to control without BCP): significantly decreased colonies
- colony formation (HepG2 expressing ectopic PGF vs empty vector, same BCP treatment (150 µM, 10 days)): more colonies

— article PMC11671526, “β-caryophyllene sensitizes hepatocellular carcinoma cells to chemotherapeutics and inhibits cell malignancy through targeting MAPK signaling pathway” (Frontiers in Pharmacology, 2024)
